The values that follow come from US10927418B2, “Assays and methods for selecting a treatment regimen for a subject with leukemia” (CELATOR PHARMACEUTICALS, INC., priority 2015, dated 2021).

The structures appear in SMILES notation.

The test system of the experiment is ME-1 and MOLM-14 cells. Nature of the experiment: CPX-351 uptake after quizartinib pretreatment. Format: cell-based. The method, then: Uptake of CPX-351 was measured by daunorubicin fluorescence as determined by flow cytometry normalized to untreated control. The x-axis in the graphs depicts the uptake of CPX-351 in standard units of fluorescence and the y-axis represents the normalized cell counts. […] It is clear from FIGS. 9A and 9B that as the pretreatment time is extended, the ability of some of the cells to take up CPX-351 is diminished. The results in FIGS. 9C and 9D are composites of the various timepoints up to 24 hours.

For the compound `CC(C)(C)c1cc(NC(=O)Nc2ccc(-c3cn4c(n3)sc3cc(OCCN5CCOCC5)ccc34)cc2)no1` [quizartinib], the “ability of cells to take up CPX-351 as quizartinib pretreatment time is extended” value (10 nM quizartinib for 0, 2, 8, 16 and 24 hours, then CPX-351 for 2 hours) is recorded as “diminished”. Where the note is “pretreatment with quizartinib for 16 hours”, the “total population of cells exhibiting decreased daunorubicin fluorescence” value was “approximately 50%”.
